The target in this assay is T1, Receptor-interacting serine/threonine-protein kinase 1 (Homo sapiens, UniProt Q13546).
T1 sequence (Q13546 whole entry): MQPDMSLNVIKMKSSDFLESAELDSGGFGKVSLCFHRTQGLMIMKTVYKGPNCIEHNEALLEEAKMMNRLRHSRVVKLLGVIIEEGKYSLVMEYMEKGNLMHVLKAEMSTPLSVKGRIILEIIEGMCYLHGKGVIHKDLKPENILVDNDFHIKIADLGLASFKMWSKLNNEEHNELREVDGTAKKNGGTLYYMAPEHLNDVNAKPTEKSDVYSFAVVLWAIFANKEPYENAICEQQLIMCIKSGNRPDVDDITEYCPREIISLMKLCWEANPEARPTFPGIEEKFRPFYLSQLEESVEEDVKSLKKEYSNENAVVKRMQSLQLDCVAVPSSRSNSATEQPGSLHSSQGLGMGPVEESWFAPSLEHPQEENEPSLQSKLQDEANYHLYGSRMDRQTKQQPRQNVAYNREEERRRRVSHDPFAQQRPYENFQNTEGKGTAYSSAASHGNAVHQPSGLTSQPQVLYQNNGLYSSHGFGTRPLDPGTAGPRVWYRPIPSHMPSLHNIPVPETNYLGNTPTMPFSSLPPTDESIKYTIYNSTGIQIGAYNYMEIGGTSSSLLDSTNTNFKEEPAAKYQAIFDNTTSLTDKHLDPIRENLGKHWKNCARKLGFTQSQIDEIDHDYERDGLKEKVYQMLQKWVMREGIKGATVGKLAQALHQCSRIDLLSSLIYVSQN
Kind of assay: ADP-Glo Kinase Assay. Here is the method:
In order to measure RIPK1 activity the ADP-Glo kinase assay (Promega, Catalog #V7002) was used to measure the conversion of ATP to ADP. […] Stock solutions of the test compounds were prepared in 100% DMSO (Sigma, Catalog #D2650) and serially diluted 1:3 using 100% DMSO. Compounds were additionally diluted 1:40 in assay buffer, and 2 μL/well were transferred to the assay plate. 4 μL/well (final concentration of 5 nM) of RIPK1 protein (SignalChem, Catalog #R07-1IG-05) diluted in assay buffer and added to the assay plate followed by a 10 minute preincutation at rt. 4 μL/well of ATP (Promega, Catalog #V7002) (final concentration of 50 μM) diluted in assay buffer were then added to the assay plate followed by a 6 h reaction time. Final concentrations of RIPK1 and ATP refer to a 10 μL volume. Luminescence was measured using a BioTek Synergy™ NEO plate reader. IC50 values were calculated using a four-parameter logistic curve fit using Genedata Screener software.

pIC50: −log10 of the molar value.

With `O=C(N1N=CCC1c1cc(F)cc(F)c1)C12CC(Cn3ncc4ncccc43)(C1)C2` (stereo unspecified) [US20250214942, Example 148], the pIC50 is 7.10.
